{"source": "patent US11890286B2", "about": "“Methods and compositions for treating cancer” (THE UNIVERSITY OF CHICAGO, priority 2018, dated 2024)", "key": {"[1]": {"system": "BM1 cells", "test": "3D proliferation of BM1 cells (total cell number in the invasion assay)", "format": "cell-based, human", "details": "BM1, 10 μM and above", "description": "(§1) The chemotaxis module in IncuCyte® can accurately count the number of cell in the top chamber and the bottom chamber of the ClearView plates separately. Invasive capability of the cells in the presence of various small molecule inhibitors was measured as the percentage of cells that moved to the bottom chamber over the period of 72 hours. The formula used for this calculation is (number of cells in the bottom chamber)/(number of cells in the bottom chamber+number of cells in the top chamber)×100. The total number of cells in the top and bottom chambers is used as a readout of proliferation, which was important for determining drug combinations that blocked invasion without affecting growth properties of the cells.\n3D Cultures: For 3D proliferation experiments, we used Cultrex® 3D Basement Membrane Matrix, Reduced Growth Factor (Trevigen, Cat. No. 3445-005-01, Lot No 37353J16, Lot concentration: 15.51 mg/ml, referred to as BME). For all experiments, the cells in growth media were mixed with BME at a final concentration of 2 mg/ml. For 3D proliferation assays, 100 μl of the cell/BME mixture was dispensed into each well of a 96-well plate. Upon solidification of BME, 100 μl of growth media was added on top of the solidified gel. […] The growth of the cells was monitored in IncuCyte® Zoom or S3 models for the indicated duration of time."}, "[2]": {"system": "BM1 cells (BM1-NucLight Red)", "test": "High-throughput chemotactic invasion assay of nuclear-labeled BM1 cells", "format": "cell-based, human", "details": "72 hours, single drug", "description": "High-throughput chemotactic invasion assays: For testing anti-invasive drug combinations, IncuCyte® ClearView 96-Well Chemotaxis plates (Essen BioScience) were used. 2000 cells per well were embedded in 2 mg/ml BME and plated onto the chemotaxis plate following the manufacturer's instructions. Media containing 2% FBS was used in both top and bottom chambers to maintain cell viability over 72 hours or more. 200 ng/ml human EGF (Bio-Techne, 236-EG-01M) was used as the chemotactic agent in the bottom chamber, and the control wells only had the vehicle for the chemotactic agent.\nThis assay is more accurate when nuclear-labeled cells are used. Therefore, BM1-mKate2 (nuclear red) cells were generated using IncuCyte® NucLight Red Lentivirus Reagent (Essen BioScience, Cat. No. 4478) following the manufacturer's instructions. After transduction, cells with the highest nuclear red signal intensity (top 25%) were sorted by FACS.\nas §1"}, "[3]": {"system": "orthotopic LMB tumors", "test": "Primary orthotopic LMB tumor growth in syngeneic mice", "format": "in vivo, mouse", "details": "single inhibitor; for primary LMB tumor growth determined by final tumor weight: syngeneic model, 10 mg/kg/day or lower", "description": "For primary tumor growth experiments, 2×10^6 BM1 cells, 5×10^5 LMB cells, or 1×10^6 […] cells were injected orthotopically near the mammary fat pad of athymic nude, C57B1/6, or C3-1-TAg-REAR mice, respectively. Tumor growth was monitored over time by caliper measurements of the width and length of tumors. Tumor volumes were calculated with the formula: For the in vivo studies involving MAPK inhibitors and the 4-drug MAPKi combination treatment, small molecule inhibitors were resuspended under sterile conditions. […] No. 91893)+50% saline. JNK inhibitor SP600125 and MEK inhibitor Trametinib were diluted in corn oil (Sigma, Cat. No. C8267). For the 4-drug combinatorial treatment, all inhibitors were dissolved in their own solvent at 4×higher concentration then the desired final concentration. Then, SB203580 and URMC-099 were mixed at a 1:1 ratio, reducing the concentration for each drug down to 2×. Similarly, SP600125 and Trametinib were mixed at a 1:1 ratio. These dual combination solutions were then filtered through 0.22 μm PES filter syringes to assure sterility. Each mouse received 50 μl of each dual combination on the same day, resulting in a total of 100 μl of drug mix (2 injections per mouse) with each drug at their desired 1×final concentration. […] All injections were intraperitoneal. For the tumor growth experiments with the MAPK inhibitors, tumors were allowed to reach the size 50-100 mm^3 size before the MAPKi treatment began. Then, the mice were treated with the respective MAPKi treatment (or the control) for up to 3 weeks. Tumor size was monitored twice a week with a caliper. For the metastasis assays, the tumor cells were treated with the 4-drug MAPKi combination at the in vitro doses for 24 hours prior to injections to allow for anti-metastatic reprogramming of the cells. Homing to metastatic tissues upon intracardiac or tail vein injections can take up to 48 hours. […] After the inoculation, the mice were treated with the inhibitors daily for up to 3 weeks until the experimental endpoints discussed above were reached."}, "[4]": {"system": "JNK", "test": "Signaling study in vitro, immunoblot of JNK phosphorylation in TNBC cell lines", "format": "cell-based, human and mouse", "description": "(§2) Signaling studies in vitro: In order to investigate the changes in stress kinase signaling upon stress in the presence of RKIP, or small molecule inhibitors of the MAPKs, cells were plated at sub-confluence. Once they reached roughly 70% confluence, they were starved overnight (16-24 hours) in serum-free media, and then induced with either anisomycin (Sigma-Aldrich, Cat. No. A9789) at 25 ng/ml or 100 ng/ml final concentration, or by 10% serum for 30 minutes to activate MAPK pathways. In studies with small molecule inhibitors of the MAPK pathway, all inhibitors were re-suspended in DMSO and used at indicated concentrations. The cells were pre-treated with the inhibitors in serum-free media for 30 minutes after overnight starvation, immediately before induction with anisomycin or serum for 30 minutes. In this case, the inducing agent was directly added to the pre-treatment media that already had the inhibitors, or the pre-treatment media was replaced by fresh media containing the inducer and the inhibitors. […]\n(§3) Protein isolation and western blots: Cultured cells were washed with cold PBS and lysed in RIPA buffer with protease inhibitors (Millipore Sigma, Cat. No. 539134) and phosphatase inhibitors (GoldBio, Cat. No. GB-450). […] Supernatant was collected and the protein concentration measured using the Bradford assay. […]"}, "[5]": {"system": "BM1 cells", "test": "Chemotactic invasion assay, BM1 cells", "format": "cell-based, human", "details": "increasing doses, single drug", "description": "(§4) Boyden Chamber Invasion Assay: Each Boyden chamber membrane (Fisher Scientific, Cat. No. 353097) was coated with a thin layer of BME (200 μl of 0.25 mg/ml stock, or total of 50 μg of BME per membrane) and incubated at 37° C. for 1 hour. Cells were trypsinized and centrifuged at 500×g for 5 minutes followed by two rounds of PBS washes to remove remaining serum-containing media. Then, the cells were resuspended in serum-free media and diluted to the desired concentration for plating onto the Boyden chambers. Each Boyden chamber received 20,000-100,000 cells in 300 μl serum-free media, depending on the cell line. 10% serum was used as the chemoattractant for these assays. For the experiments testing the effect of MAPK inhibitors on invasion, the cells were resuspended in drug-containing serum-free media immediately. After 16-24 hours, the membranes were stained with Calcein AM (Fisher Scientific, Cat. No. 354217) for 1 hour at 37° C. in the dark to stain for live cells. Cells that are in the top chamber were removed from the membrane with a wet cotton swab. Cells in the bottom chamber were dissociated from the membrane by incubating in cell dissociation buffer (Trevigen, Cultrex®, Cat. No. 3455-096-05) in a shaker at 37° C. for 1 hour. Calcein AM signal was measured in Perkin Elmer Victor X3 plate reader as a read-out of invaded cells."}, "[6]": {"system": "MB436 cells", "test": "Chemotactic invasion assay, MB436 cells", "format": "cell-based, human", "details": "increasing doses, single drug", "description": "as §4"}, "[7]": {"system": "p38", "test": "Signaling study in vitro, immunoblot of p38 phosphorylation in TNBC cell lines", "format": "cell-based, human and mouse", "details": "anisomycin-induced human cell lines (BM1, MB436)", "description": "as §2, §3"}}, "data": [{"smiles": "O=C(O)c1ccc2c(c1)nc(Nc1cccc(Cl)c1)c1ccncc12", "note": "[CX-4945]", "values": [{"measurement": "effect on growth at the doses that blocked invasion", "setting": "[1]", "value": "growth-inhibitory"}]}, {"smiles": "C[S+]([O-])c1ccc(-c2nc(-c3ccc(F)cc3)c(-c3ccncc3)[nH]2)cc1", "note": "(stereo not shown) [SB203580, 4-(4-Fluorophenyl)-2-(4-methylsulfinylphenyl)-5-(4-pyridyl)-1H-imidazole]", "values": [{"measurement": "minimal dose at which the proliferation rates were unaffected while the invasive capabilities of the cells were at least partially blocked", "setting": "[2]", "value": 1, "unit": "µM"}, {"measurement": "primary LMB tumor growth determined by final tumor weight", "setting": "[3]", "value": "do not affect primary LMB tumor growth"}, {"measurement": "JNK activation upon p38 inhibition (crosstalk)", "setting": "[4]; serum-induced, all four human and mouse TNBC cell lines", "value": "resulted in JNK activation"}]}, {"smiles": "Oc1c2ccccc2c2c3c(cccc13)N=N2", "note": "[SP600125, 1,9-Pyrazoloanthrone]", "values": [{"measurement": "minimal dose at which the proliferation rates were unaffected while the invasive capabilities of the cells were at least partially blocked", "setting": "[2]", "value": 1, "unit": "µM"}]}, {"smiles": "CC(=O)Nc1cccc(-n2c(=O)n(C3CC3)c(=O)c3c(Nc4ccc(I)cc4F)n(C)c(=O)c(C)c32)c1", "note": "[Trametinib]", "values": [{"measurement": "minimal dose at which the proliferation rates were unaffected while the invasive capabilities of the cells were at least partially blocked", "setting": "[2]", "value": "0.001 to 0.01", "unit": "µM"}, {"measurement": "primary LMB tumor growth", "setting": "[3]; doses below 1 mg/kg", "value": "no significant effect"}]}, {"smiles": "CN1CCN(Cc2ccc(-c3cnc4[nH]cc(-c5ccc6[nH]ccc6c5)c4c3)cc2)CC1", "note": "[URMC-099, 3-(1H-indol-5-yl)-5-[4-[(4-methyl-1-piperazinyl)methyl]phenyl]-1H-pyrrolo[2,3-b]pyridine]", "values": [{"measurement": "invasion of BM1 cells", "setting": "[5]", "value": "decreased invasion"}, {"measurement": "minimal dose at which the proliferation rates were unaffected while the invasive capabilities of the cells were at least partially blocked", "setting": "[2]", "value": "0.01 to 0.05", "unit": "µM"}, {"measurement": "primary LMB tumor growth determined by final tumor weight", "setting": "[3]", "value": "do not affect primary LMB tumor growth"}, {"measurement": "invasion of MB436 cells", "setting": "[6]", "value": "decreased invasion"}, {"measurement": "JNK activation", "setting": "[4]; anisomycin-induced human cell lines (BM1, MB436)", "value": "decrease"}, {"measurement": "p38 activation", "setting": "[7]", "value": "decrease"}]}]}
